Key:
[1] = Synergistic phototoxicity-reducing action of combinations (method not described)
[2] = system: heparin-added rabbit venous blood (whole blood); test: In vitro phototoxicity test (ketoprofen-associated photohemolysis); assay type: cell-based; details: Oryctolagus cuniculus, light or radiation study, with ketoprofen, 7.5 J/cm^2 UVA
Procedure: The following experiment was conducted according to “Guidelines for basic biological tests of medical materials and devices”, Part VII “Hemolysis Test”. First, each of the test substances listed in Table I (Example 1), Table 2 (Example 2) and Table 3 (Example 3) {tert-butylhydroxyanisole (BHA), di-tert-butylhydroxytoluene (BHT), thymol, propyl gallate} and ketoprofen were dissolved in N,N-dimethylformamide (DMF) to 20-fold compared to the concentration shown in the tables (1000 μg/mL of ketoprofen). Also, after further diluting these solutions 5-fold in phosphate buffered saline (PBS), equal amounts of each test substance solution and the ketoprofen solution were combined. As a control, ketoprofen alone was dissolved in DMF to […], and diluted 10-fold with PBS to prepare a solution. These solutions were dispensed in 1 mL portions into a 24-well multiwell plate, and then 1 mL of PBS containing 40 μL of heparin-added rabbit venous blood (whole blood) per 5 mL was added to each to prepare reaction solutions.
An ultraviolet irradiating apparatus (UVP Lamp Fixture, UVP) equipped with two ultraviolet lamps (FL15BLB, Sankyo Denki) was used to irradiate the reaction solutions with 7.5 J/cm^2 UVA (ultraviolet rays of wavelength 320-400 nm) in an incubator set to 37° C., with the cover removed from the plate containing the reaction solutions (UVA is associated with drug-induced photosensitivity). During the ultraviolet irradiation, a 3 mm-thick glass plate was placed between the light source and the reaction solutions to cut ultraviolet rays of 320 nm wavelength and shorter. The incubation time was 60 minutes, including the irradiation time. After completion of the reaction, the solutions were centrifuged, the obtained 100 μL of supernatant (N=3) was transferred to a 96-well assay plate and the absorbance at 540 nm (Abs540) was measured as an index of hemolysis. The effects of each of the test substances in Tables 1 to 3 on ketoprofen-associated photohemolysis were evaluated as the hemolysis inhibition (%) with respect to the control group, calculated using Abs540.

[3] = system: auricle of a Balb/c mouse; test: In vivo photosensitivity test (ketoprofen-induced ear thickness increase after UVA); details: 20 μL on auricle, 40 J/cm^2 UVA, 24 hours
Procedure: The following experiment was conducted with reference to the method of Gerberick et al. (Food Chem. Toxicol., 27, 813-819(1989)) with some modifications. First, ethanol was used to prepare a mixed solution containing the test substances shown in Tables 4 and 5 {tert-butylhydroxyanisole (BHA), di-tert-butylhydroxytoluene […], propyl gallate} and 2% ketoprofen. As a control a 2% ketoprofen solution was prepared using ethanol. Next, 20 μL of each prepared solution (N=8) was applied onto the auricle of a Balb/c mouse (female, 9-11 weeks old), prior to irradiation with 40 J/cm^2 UVA. When 24 hours had passed after UVA irradiation, the ear thickness of the mouse was measured and the increase with respect to the initial ear thickness was calculated. […] The abbreviation “PG” in the tables stands for “propyl gallate”.

[4] = system: IL-1α production in HPV16 immobilized human adult keratinocytes (KERTr); test: IL-1α production in ketoprofen-treated, UVA-irradiated keratinocytes (ELISA); assay type: cell-based; details: 75 μM ketoprofen, 6-8 J/cm^2 UVA, 24 hours after irradiation
Procedure: After adding a mixed solution of 75 μM ketoprofen and different concentrations of propyl gallate to a culturing medium (EpiLife™ Serum Free Medium E0151) (Cascade Biologics, Inc.) containing HPV16 immobilized human adult keratinocytes (KERTr) KUK001 (ATCC Co., Rockville, Md.), the mixture was incubated for 2 hours at […] in 5% carbon dioxide/95% air, and then irradiated with 6-8 J/cm^2 UVA. When 24 hours had passed after UVA irradiation, the IL-1α concentration of the culture supernatant was evaluated with an ELISA kit (R&D Systems, Inc.). As a control, there was used the above-mentioned culturing medium to which a solution of 75 μM ketoprofen alone was added, which was incubated for 2 hours at 37° C. in 5% carbon dioxide/95% air, and which was not irradiated with UVA.
An experiment was conducted in the same manner as Example 6 using di-tert-butylhydroxytoluene (BHT) instead of propyl gallate.

## CCCCCCCCC(=O)NCc1ccc(O)c(OC)c1 [nonylic vanillylamide]
[1]
  synergistic effect on the phototoxicity-reducing action: No such synergistic effect is observed

## Cc1cc(C(C)(C)C)c(O)c(C(C)(C)C)c1 [BHT, 2,6-di-tert-butyl-p-cresol]
[2]; BHT 0.125 μg/mL, propyl gallate 0
  hemolysis inhibition at 0.125 µg/mL: -3.7%
[2]; BHT 0.25 μg/mL, propyl gallate 0
  hemolysis inhibition at 0.25 µg/mL: 9.6%
[2]; BHT 0.5 μg/mL, propyl gallate 0
  hemolysis inhibition at 0.5 µg/mL: 49.6%
[2]; BHT 1 μg/mL, propyl gallate 0
  hemolysis inhibition at 1 µg/mL: 88.9%
[3]; 1.0% BHT with 2% ketoprofen in ethanol
  Auricular edema inhibition (%): 16%
[4]
  IL-1α production (IL-1α concentration in the culture supernatant): IL-1α production is inhibited

## CCCOC(=O)c1cc(O)c(O)c(O)c1 [Propyl gallate, propyl gallate]
[2]; Table 1: propyl gallate 0.5 μg/mL, BHA 0
  hemolysis inhibition at 0.5 µg/mL: 25.5%
[2]; Table 1: propyl gallate 1 μg/mL, BHA 0
  hemolysis inhibition at 1 µg/mL: 66%
[2]; Table 1: propyl gallate 2 μg/mL, BHA 0
  hemolysis inhibition at 2 µg/mL: 88.9%
[2]; Table 2: propyl gallate 0.5 μg/mL, BHT 0
  hemolysis inhibition at 0.5 µg/mL: 3.6%
[2]; Table 2: propyl gallate 1 μg/mL, BHT 0
  hemolysis inhibition at 1 µg/mL: 45.4%
[2]; Table 2: propyl gallate 2 μg/mL, BHT 0
  hemolysis inhibition at 2 µg/mL: 91.2%
[2]; Table 3: propyl gallate 0.5 μg/mL, thymol 0
  hemolysis inhibition at 0.5 µg/mL: 2.1%
[2]; Table 3: propyl gallate 1 μg/mL, thymol 0
  hemolysis inhibition at 1 µg/mL: 63.8%
[2]; Table 3: propyl gallate 2 μg/mL, thymol 0
  hemolysis inhibition at 2 µg/mL: 88%
[3]; Table 4: 0.2% PG with 2% ketoprofen in ethanol
  Auricular edema inhibition (%): 21%
[3]; Table 5: 0.2% PG with 2% ketoprofen in ethanol
  Auricular edema inhibition (%): 19%
[4]
  IL-1α production (IL-1α concentration in the culture supernatant): IL-1α production is inhibited

## Cc1ccc(C(C)C)c(O)c1 [Thymol, 6-isopropyl-m-cresol]
[2]; thymol 0.5 μg/mL, propyl gallate 0
  hemolysis inhibition at 0.5 µg/mL: 10.8%
[2]; thymol 1 μg/mL, propyl gallate 0
  hemolysis inhibition at 1 µg/mL: 41.1%
[2]; thymol 2 μg/mL, propyl gallate 0
  hemolysis inhibition at 2 µg/mL: 70.7%

## COc1ccc(O)cc1C(C)(C)C [BHA, 2-tert-butyl-4-oxyanisole]
[3]; 0.5% BHA with 2% ketoprofen in ethanol
  Auricular edema inhibition (%): 24%

— patent US20060188557A1, “Prepartaion for external percutaneous administration containing non-steroidal anti-inflammatory drug and interleukin-1 alpha production inhibitor” (Hisamitsu Pharmaceutical Co., Inc., priority 2003, published 2006)
